According to ChEMBL document CHEMBL5335787, “Fragment-based and structure-guided discovery of perforin inhibitors” (Eur J Med Chem, 2023):

Experiments:
[1] = biological target: T1, Perforin-1 (Homo sapiens) (UniProt P14222); experiment: Inhibition of perforin-dependent cell killing activity of human KHYG-1 cells assessed as reduction in cytotoxicity against K562 cells preincubated for 20 mins followed by 51Cr labelled K562 cells addition and measured after 4 hrs by gamma counter analysis; type: cell-based; conditions: time 260.0 min
T1 sequence (whole entry): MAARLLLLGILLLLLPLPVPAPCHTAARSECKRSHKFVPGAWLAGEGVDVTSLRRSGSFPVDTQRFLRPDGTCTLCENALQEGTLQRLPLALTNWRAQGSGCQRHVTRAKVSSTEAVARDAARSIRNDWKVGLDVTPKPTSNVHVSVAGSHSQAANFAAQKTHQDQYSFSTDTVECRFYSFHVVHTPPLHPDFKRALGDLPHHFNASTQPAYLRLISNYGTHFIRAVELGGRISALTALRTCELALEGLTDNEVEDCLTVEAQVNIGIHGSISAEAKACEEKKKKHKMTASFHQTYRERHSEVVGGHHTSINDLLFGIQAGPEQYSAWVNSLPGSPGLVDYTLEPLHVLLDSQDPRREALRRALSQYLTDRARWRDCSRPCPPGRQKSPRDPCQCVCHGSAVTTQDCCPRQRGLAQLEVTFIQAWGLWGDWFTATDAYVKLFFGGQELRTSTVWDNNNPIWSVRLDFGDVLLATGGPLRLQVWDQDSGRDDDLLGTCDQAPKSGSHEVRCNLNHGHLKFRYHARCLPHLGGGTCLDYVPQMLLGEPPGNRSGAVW

[2] = Cytotoxicity against human KHYG-1 cells assessed as cell viability at 1 uM measured after 24 hrs by trypan blue staining based analysis relative to control; type: toxicity; conditions: read-out: Activity
[3] = tested on: HepG2; experiment: Cytotoxicity against human HepG2 cells assessed as reduction in cell viability at 0.001 to 100 uM incubated for 5 days by SRB assay; type: toxicity, cell-based; conditions: hepg2, 120 h, dose 0.001-100 µM, time 5 day
[4] = biological target: T2, Perforin-1 (Mus musculus, UniProt P10820); experiment: Binding affinity to lipid-coated L1 chip immobilised recombinant mouse perforin expressed in baculovirus-infected Sf21 cells by SPR analysis
T2 sequence (P10820 whole entry): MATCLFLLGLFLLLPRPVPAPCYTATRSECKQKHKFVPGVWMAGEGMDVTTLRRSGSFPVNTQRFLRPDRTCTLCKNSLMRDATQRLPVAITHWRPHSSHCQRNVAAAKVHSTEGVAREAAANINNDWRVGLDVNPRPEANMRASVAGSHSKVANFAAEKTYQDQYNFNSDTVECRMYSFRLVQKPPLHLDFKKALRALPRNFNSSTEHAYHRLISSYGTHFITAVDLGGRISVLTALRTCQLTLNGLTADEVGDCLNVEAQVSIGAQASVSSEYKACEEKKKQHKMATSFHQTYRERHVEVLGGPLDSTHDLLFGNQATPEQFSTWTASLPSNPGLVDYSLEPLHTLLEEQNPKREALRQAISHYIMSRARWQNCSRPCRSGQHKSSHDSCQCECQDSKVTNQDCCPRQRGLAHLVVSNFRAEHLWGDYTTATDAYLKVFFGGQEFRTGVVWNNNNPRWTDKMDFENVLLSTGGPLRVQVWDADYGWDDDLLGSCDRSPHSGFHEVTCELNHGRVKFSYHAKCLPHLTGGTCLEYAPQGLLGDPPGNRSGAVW

[5] = biological target: T2, Perforin-1; experiment: Binding affinity to CM5 chip immobilised recombinant mouse perforin expressed in baculovirus-infected Sf21 cells by SPR analysis
[6] = biological target: T3, Perforin-1 (Mus musculus) (UniProt P10820); experiment: Binding affinity to recombinant mouse perforin expressed in baculovirus-infected Sf21 cells assessed as change in chemical shift by 19F NMR assay
T3 sequence (whole entry): T2 sequence (P10820 whole entry)

[7] = Cytotoxicity against human KHYG-1 cells assessed as cell viability at 0.38 uM measured after 24 hrs by trypan blue staining based analysis relative to control; type: toxicity; conditions: read-out: Activity
[8] = Cytotoxicity against human KHYG-1 cells assessed as cell viability at 0.24 uM measured after 24 hrs by trypan blue staining based analysis relative to control; type: toxicity; conditions: read-out: Activity
[9] = biological target: T1, Perforin-1 (Homo sapiens); experiment: Inhibition of perforin-dependent cell killing activity of human KHYG-1 cells assessed as reduction in cytotoxicity against K562 cells at 100 uM preincubated for 20 mins followed by 51Cr labelled K562 cells addition and measured after 4 hrs by gamma counter analysis relative to control; type: cell-based; conditions: time 260.0 min

| SMILES | IC90 [1] [nM] | viability at 24 h, 1 µM [2] [%] | also measured |
| --- | --- | --- | --- |
| Cc1ccc(S(=O)(=O)c2ccc3c(c2)CCN3)cc1-c1cnc(N)nc1 | 30 | > 85 | Activity [3]: Non-Toxic; Kd [4]: ~200 nM; Kd [5]: 85000 nM |
| Cc1ccc(S(=O)(=O)c2ccc3[nH]ccc3c2)cc1-c1cnc(N)nc1 | 496 | > 85 | – |
| Cc1ccc(NS(=O)(=O)c2ccc3c(c2)CCN3)cc1-c1cnc(N)nc1 | 33 | > 85 | – |
| Cc1cc(NS(=O)(=O)c2ccc(C)c(-c3cnc(N)nc3)c2)ccc1N | 2290 | > 85 | – |
| Cc1ccc(S(=O)(=O)c2ccc3c(c2)CCN3C)cc1-c1cnc(N)nc1 | 406 | > 85 | – |
| Cc1cc(S(=O)(=O)c2ccc(C)c(-c3cnc(N)nc3)c2)ccc1N | 169 | > 85 | Kd [4]: ~200 nM; Kd [5]: 110000 nM |
| Cc1ccc(S(=O)(=O)c2ccc3c(c2)CCN3)cc1-c1ccc2n[nH]cc2c1 | 1040 | > 85 | – |
| Cc1ccc(S(=O)(=O)c2ccc3c(c2)CCN3)cc1-c1ccc(N)nc1 | 361 | > 85 | – |
| Cc1ccc(S(=O)(=O)c2ccc3[nH]ncc3c2)cc1-c1cnc(N)nc1 | 281 | > 85 | – |
| Cc1cc(S(=O)(=O)Nc2ccc(C)c(-c3cnc(N)nc3)c2)ccc1N | 70 | > 85 | – |
| Cc1ccc(S(=O)(=O)c2ccc3c(c2)CNC3=O)cc1-c1cnc(N)nc1 | 199 | > 85 | – |
| Nc1ccc(S(=O)(=O)c2cccc(-c3cnc(N)nc3)c2)c(C(F)(F)F)c1 | 131 | – | Activity [6]: 8.5 Hz |
| Cc1ccc(S(=O)(=O)c2ccc(N)cc2)cc1-c1cccnc1 | 43000 | – | – |
| Cc1cc(NC(=O)c2ccc(C)c(-c3cnc(N)nc3)c2)ccc1N | > 30000 | > 85 | – |
| Cc1ccc(NS(=O)(=O)c2ccc(N)cc2C(F)(F)F)cc1-c1cnc(N)nc1 | 1900 | – | Activity [6]: 5.5 Hz |
| Cc1cc(C(=O)Nc2ccc(C)c(-c3cnc(N)nc3)c2)ccc1N | > 30000 | > 85 | – |
| Cc1ccc(S(=O)(=O)c2ccc3c(c2)CCN3)cc1-c1cnc2n[nH]cc2c1 | 40 | 56 | viability at 24 h, 0.38 µM [7]: 97% |
| Cc1ccc(S(=O)(=O)c2ccc3c(c2)CCNC3=O)cc1-c1cnc(N)nc1 | 40 | > 85 | – |
| Cc1cc(S(=O)(=O)c2ccc3c(c2)CCN3)ccc1-c1cnc(N)nc1 | > 3000 | > 85 | – |
| Cc1cc(C(N)=O)cc(S(=O)(=O)c2ccc(C)c(-c3cnc(N)nc3)c2)c1 | 29 | – | viability at 24 h, 0.24 µM [8]: 64% |
| Cc1ccc(S(=O)(=O)c2ccc(N)cc2C(F)(F)F)cc1-c1cnc(N)nc1 | 21 | – | Activity [6]: 13.2 Hz |
| Cc1ccc(S(=O)(=O)c2ccc(N)cc2)cc1-c1cnc(N)nc1 | 3400 | – | – |
| CCNc1ccc(S(=O)(=O)c2ccc(C)c(-c3cnc(N)nc3)c2)c(C(F)(F)F)c1 | 31 | – | Activity [6]: 14.5 Hz |
| Nc1ccc(S(=O)(=O)c2ccc(N)cc2)cc1 [DAPSONE] | > 100000 | – | inhibition [9]: 65%; Activity [3]: Non-Toxic |
| Cc1ccc(S(=O)(=O)c2ccc3c(c2)CCO3)cc1-c1cnc(N)nc1 | 160 | > 85 | – |
| CNC(=O)Nc1ccc(-c2cc(S(=O)(=O)c3ccc4c(c3)CCN4)ccc2C)cc1 | 4460 | > 85 | – |
| Cc1cc2c(cc1-c1cnc(N)nc1)S(=O)(=O)c1ccc(C(N)=O)cc1CC2C (stereo not drawn) | 40 | 76 | – |
| Cc1cc(S(=O)(=O)c2ccc(C)c(-c3cnc(N)nc3)c2)c(C(F)(F)F)cc1N | 203 | – | Activity [6]: 7.6 Hz |
| Cc1cc(S(=O)(=O)c2ccc(C)c(-c3cnc(N)nc3)c2)ccc1C(N)=O | 155 | > 85 | – |
